Patent publication US12486267B2, “Imidazo[1,2-A]pyridine and [1,2,4]triazolo[1,5-A]pyridine derivatives as TLR9 inhibitors for the treatment of fibrosis” (BRISTOL-MYERS SQUIBB COMPANY, priority 2020, dated 2025)

Tests used:
Assay type in all cases: cell-based
human TLR9 = target: T1, human TLR9 (Homo sapiens, UniProt Q9NR96); experiment: TLR9 inhibition reporter assay (HEK-Blue cells, SEAP reporter); conditions: HEK-Blue cells overexpressing human TLR9; stimulated with ODN2006 5 nM; 22 hour incubation; SEAP readout
T1 sequence (Q9NR96 26-1032): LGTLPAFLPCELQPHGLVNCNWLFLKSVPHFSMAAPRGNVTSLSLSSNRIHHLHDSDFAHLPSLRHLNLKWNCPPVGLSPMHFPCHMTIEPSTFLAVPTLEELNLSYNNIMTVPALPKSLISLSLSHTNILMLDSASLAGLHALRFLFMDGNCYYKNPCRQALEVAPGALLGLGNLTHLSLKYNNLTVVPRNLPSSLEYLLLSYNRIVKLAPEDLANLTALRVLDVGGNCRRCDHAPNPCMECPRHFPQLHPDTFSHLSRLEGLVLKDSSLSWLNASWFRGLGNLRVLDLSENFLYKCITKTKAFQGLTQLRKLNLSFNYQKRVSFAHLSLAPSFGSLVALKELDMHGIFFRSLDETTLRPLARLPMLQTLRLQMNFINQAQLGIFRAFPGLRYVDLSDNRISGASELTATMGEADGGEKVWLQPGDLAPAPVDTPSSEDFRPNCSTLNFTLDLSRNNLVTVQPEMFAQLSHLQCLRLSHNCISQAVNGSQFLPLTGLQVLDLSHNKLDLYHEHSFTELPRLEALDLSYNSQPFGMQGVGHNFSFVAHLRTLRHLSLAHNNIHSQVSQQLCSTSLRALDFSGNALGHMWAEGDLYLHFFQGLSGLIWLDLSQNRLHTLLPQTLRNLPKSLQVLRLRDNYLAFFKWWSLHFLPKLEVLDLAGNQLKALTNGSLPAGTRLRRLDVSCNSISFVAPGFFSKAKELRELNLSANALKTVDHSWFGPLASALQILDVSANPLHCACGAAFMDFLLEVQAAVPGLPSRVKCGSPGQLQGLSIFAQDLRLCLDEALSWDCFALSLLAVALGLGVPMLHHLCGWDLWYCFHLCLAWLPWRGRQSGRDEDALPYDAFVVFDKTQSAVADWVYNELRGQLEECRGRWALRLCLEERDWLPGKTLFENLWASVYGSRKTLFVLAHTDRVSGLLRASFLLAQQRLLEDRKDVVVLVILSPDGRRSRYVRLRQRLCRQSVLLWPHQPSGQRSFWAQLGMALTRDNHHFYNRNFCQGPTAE
Description: (§1) TLR7/8/9 Inhibition Reporter Assays
(§2) HEK-Blue™-cells (Invivogen) overexpressing human TLR7, TLR8 or TLR9 receptors were used for screening inhibitors of these receptors using an inducible SEAP (secreted embryonic alkaline phosphatase) reporter gene under the control of the […] minimal promoter fused to five NF-κB and AP-1-binding sites. Briefly, cells are seeded into Greiner 384 well plates (15000 cells per well for TLR7, 20,000 for TLR8 and 25,000 for TLR9) and then treated with test compounds in DMSO to yield a final dose response concentration range of 0.05 nM-50 μM. After a 30 minute compound pre-treatment at room temperature, the cells are then stimulated with a TLR7 ligand (gardiquimod at a final concentration of 7.5 μM), TLR8 ligand (R848 at a final concentration of 15.9 μM) or TLR9 ligand (ODN2006 at a final concentration of 5 nM) to activate NF-κB and AP-1 which induce the production of SEAP. After a 22 hour incubation at 37° C., 5% CO2, SEAP levels are determined with the addition of HEK-Blue™ Detection reagent (Invivogen), a cell culture medium that allows for detection of SEAP, according to manufacturer's specifications. The percent inhibition is determined as the % reduction in the HEK-Blue signal present in wells treated with agonist plus DMSO alone compared to wells treated with a known inhibitor.

human TLR7 = target: T2, human TLR7 (Homo sapiens, UniProt Q9NYK1); experiment: TLR7 inhibition reporter assay (HEK-Blue cells, SEAP reporter); conditions: HEK-Blue cells overexpressing human TLR7; stimulated with gardiquimod 7.5 μM; 22 hour incubation; SEAP readout
T2 sequence (Q9NYK1 27-1049): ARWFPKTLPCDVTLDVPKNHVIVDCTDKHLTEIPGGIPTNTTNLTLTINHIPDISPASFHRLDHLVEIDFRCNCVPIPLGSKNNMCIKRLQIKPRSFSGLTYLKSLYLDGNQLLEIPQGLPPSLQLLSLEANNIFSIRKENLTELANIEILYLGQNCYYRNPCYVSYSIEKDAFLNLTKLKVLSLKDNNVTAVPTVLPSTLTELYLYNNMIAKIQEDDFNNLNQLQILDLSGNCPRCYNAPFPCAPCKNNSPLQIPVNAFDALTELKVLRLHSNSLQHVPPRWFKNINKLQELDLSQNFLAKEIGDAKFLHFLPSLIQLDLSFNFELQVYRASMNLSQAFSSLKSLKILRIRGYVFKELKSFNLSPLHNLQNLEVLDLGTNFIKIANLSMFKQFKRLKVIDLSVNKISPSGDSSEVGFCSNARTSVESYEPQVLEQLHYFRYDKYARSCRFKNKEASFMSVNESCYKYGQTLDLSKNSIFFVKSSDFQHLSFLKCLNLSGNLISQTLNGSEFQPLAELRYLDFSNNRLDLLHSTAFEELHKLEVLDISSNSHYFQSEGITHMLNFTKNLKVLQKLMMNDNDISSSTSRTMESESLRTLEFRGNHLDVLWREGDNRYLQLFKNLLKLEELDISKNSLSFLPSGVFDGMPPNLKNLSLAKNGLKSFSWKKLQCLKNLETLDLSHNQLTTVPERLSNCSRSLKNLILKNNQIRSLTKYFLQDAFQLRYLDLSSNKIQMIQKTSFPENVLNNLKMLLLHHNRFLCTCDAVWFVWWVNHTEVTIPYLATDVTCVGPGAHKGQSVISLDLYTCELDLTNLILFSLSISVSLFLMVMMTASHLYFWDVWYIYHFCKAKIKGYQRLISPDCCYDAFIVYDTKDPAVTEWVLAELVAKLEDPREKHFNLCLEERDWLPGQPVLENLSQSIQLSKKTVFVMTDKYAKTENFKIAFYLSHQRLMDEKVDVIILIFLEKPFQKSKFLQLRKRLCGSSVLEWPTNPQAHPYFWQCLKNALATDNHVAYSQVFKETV
Description: as §1, §2

human TLR8 = target: T3, human TLR8 (Homo sapiens, UniProt Q9NR97); experiment: TLR8 inhibition reporter assay (HEK-Blue cells, SEAP reporter); conditions: HEK-Blue cells overexpressing human TLR8; stimulated with R848 15.9 μM; 22 hour incubation; SEAP readout
T3 sequence (Q9NR97 27-1041): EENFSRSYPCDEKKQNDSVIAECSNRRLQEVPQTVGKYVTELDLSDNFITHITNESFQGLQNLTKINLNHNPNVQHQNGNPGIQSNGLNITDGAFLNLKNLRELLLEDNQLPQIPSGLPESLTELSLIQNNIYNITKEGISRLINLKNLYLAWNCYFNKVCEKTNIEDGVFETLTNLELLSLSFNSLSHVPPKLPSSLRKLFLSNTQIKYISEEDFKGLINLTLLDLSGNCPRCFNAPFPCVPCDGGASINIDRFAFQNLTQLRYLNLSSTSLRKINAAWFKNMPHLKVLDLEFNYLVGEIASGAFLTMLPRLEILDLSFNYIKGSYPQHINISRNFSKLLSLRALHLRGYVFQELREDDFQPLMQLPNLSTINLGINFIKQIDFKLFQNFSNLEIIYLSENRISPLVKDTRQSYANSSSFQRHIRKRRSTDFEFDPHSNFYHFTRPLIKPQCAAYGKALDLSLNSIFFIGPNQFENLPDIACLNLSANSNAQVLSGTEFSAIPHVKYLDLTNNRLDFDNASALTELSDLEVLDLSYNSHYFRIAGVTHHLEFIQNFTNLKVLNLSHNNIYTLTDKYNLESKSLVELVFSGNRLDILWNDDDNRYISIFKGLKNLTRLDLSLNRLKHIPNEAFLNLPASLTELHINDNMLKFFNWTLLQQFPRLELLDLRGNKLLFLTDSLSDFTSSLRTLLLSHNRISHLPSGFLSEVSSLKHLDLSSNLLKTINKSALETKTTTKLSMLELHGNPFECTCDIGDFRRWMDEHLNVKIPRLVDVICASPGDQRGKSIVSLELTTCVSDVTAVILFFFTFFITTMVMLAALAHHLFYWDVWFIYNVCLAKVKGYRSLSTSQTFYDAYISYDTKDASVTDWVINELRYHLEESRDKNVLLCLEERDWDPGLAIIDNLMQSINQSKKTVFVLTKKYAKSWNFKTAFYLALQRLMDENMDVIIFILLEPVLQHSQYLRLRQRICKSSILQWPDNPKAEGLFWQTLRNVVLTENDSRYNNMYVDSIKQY
Description: as §1, §2

Row | Structure (SMILES) | IC50 (human TLR9) | IC50 (human TLR7) | IC50 (human TLR8)
1 | COc1ccc(-c2cn3cc(C4C[C@H]5CC[C@@H](C4)N5C4CCN(C5CC5)CC4)cc(C)c3n2)cc1OC (mixture of isomers) [Example 24, 6-(8-(1-cyclopropylpiperidin-4-yl)-8-azabicyclo[3.2.1]octan-3-yl)-2-(3,4-dimethoxyphenyl)-8-methylimidazo[1,2-a]pyridine] | 102 nM | 2900 nM | > 50 µM
2 | COc1ccc(-c2cn3cc(C4C[C@H]5CC[C@@H](C4)N5C4CCN(CC(C)C)CC4)cc(C)c3n2)cc1OC (mixture of isomers) [Example 27, 2-(3,4-dimethoxyphenyl)-6-(8-(1-isobutylpiperidin-4-yl)-8-azabicyclo[3.2.1]octan-3-yl)-8-methylimidazo[1,2-a]pyridine] | 17 nM | 1400 nM | > 50 µM
3 | COc1ccc(-c2cn3cc(C4C[C@H]5CC[C@@H](C4)N5C4CCN(C(C)C)CC4)cc(C)c3n2)cc1OC (mixture of isomers) [Example 30, 2-(3,4-dimethoxyphenyl)-6-(8-(1-isopropylpiperidin-4-yl)-8-azabicyclo[3.2.1]octan-3-yl)-8-methylimidazo[1,2-a]pyridine] | 37 nM | 1400 nM | > 50 µM
4 | COc1ccc(-c2cn3c(n2)CCC(C2CCN(C4CCN(C(=O)C(C)C)CC4)CC2)C3)cc1OC (racemic) [Example 39, 1-(4-(2-(3,4-dimethoxyphenyl)-5,6,7,8-tetrahydroimidazo[1,2-a]pyridin-6-yl)-[1,4′-bipiperidin]-1′-yl)-2-methylpropan-1-one] | 141 nM | 43000 nM | > 50 µM
5 | COc1ccc(-c2cn3c(n2)CCC(C2CCN(C4CC5(C4)CN(C4CCC4)C5)CC2)C3)cc1OC (racemic) [Example 48, 6-(1-(2-cyclobutyl-2-azaspiro[3.3]heptan-6-yl)piperidin-4-yl)-2-(3,4-dimethoxyphenyl)-5,6,7,8-tetrahydroimidazo[1,2-a]pyridine] | 112 nM | 2000 nM | > 50 µM
6 | COCCN1CCN(c2ccc(-c3cc(C)c4nc(-c5ccc(OC)c(OC)c5)cn4c3)cc2)CC1 [Example 98, 2-(3,4-dimethoxyphenyl)-6-(4-(4-(2-methoxyethyl)piperazin-1-yl)phenyl)-8-methylimidazo[1,2-a]pyridine] | 456 nM | 1000 nM | –

Next, values leading:

Row | IC50 (human TLR9) | IC50 (human TLR7) | IC50 (human TLR8) | Structure (SMILES)
7 | 26 nM | 4600 nM | > 50 µM | COc1ccc(-c2cn3c(n2)CCC(C2CCN(C4CCN(CC(C)C)CC4)CC2)C3)cc1OC (racemic) [Example 31, 2-(3,4-dimethoxyphenyl)-6-(1′-isobutyl-[1,4′-bipiperidin]-4-yl)-5,6,7,8-tetrahydroimidazo[1,2-a]pyridine]
8 | 37 nM | 12000 nM | > 50 µM | COc1ccc(-c2cn3c(n2)CCC(C2CCN(C4CCN(C(C)C)CC4)CC2)C3)cc1OC (racemic) [Example 34, 2-(3,4-dimethoxyphenyl)-6-(1′-isopropyl-[1,4′-bipiperidin]-4-yl)-5,6,7,8-tetrahydroimidazo[1,2-a]pyridine]
9 | 80 nM | 19000 nM | > 50 µM | COc1ccc(-c2cn3c(n2)CCC(C2CCN(C4CCN(C(=O)C5CC5)CC4)CC2)C3)cc1OC (racemic) [Example 42, cyclopropyl(4-(2-(3,4-dimethoxyphenyl)-5,6,7,8-tetrahydroimidazo[1,2-a]pyridin-6-yl)-[1,4′-bipiperidin]-1′-yl)methanone]
10 | 90 nM | 2100 nM | > 50 µM | COc1ccc(-c2cn3c(n2)CCC(C2CCN(C4CC5(C4)CN(C(C)C)C5)CC2)C3)cc1OC (racemic) [Example 45, 2-(3,4-dimethoxyphenyl)-6-(1-(2-isopropyl-2-azaspiro[3.3]heptan-6-yl)piperidin-4-yl)-5,6,7,8-tetrahydroimidazo[1,2-a]pyridine]
11 | 55 nM | 2400 nM | – | CC(C)CN1CCC(N2CCC(c3ccn4cc(-c5ccc(S(C)(=O)=O)cc5)nc4c3F)CC2)CC1 [Example 74, 8-fluoro-7-(1′-isobutyl-[1,4′-bipiperidin]-4-yl)-2-(4-(methylsulfonyl)phenyl)imidazo[1,2-a]pyridine]
